Measured values reported in US5912352A, “Intermediates for the preparation of peptide analogues” (Novartis Finance Corporation, priority 1996, dated 1999).

Columns and labels:
[1] = biological target: T1, HIV-1-protease (Human immunodeficiency virus type 1 group M subtype B, UniProt P04585); assay: Inhibition of the proteolytic activity of HIV-1-protease (icosapeptide substrate, HPLC); format: biochemical; settings: icosapeptide RRSNQVSQNYPIVQNIQGRR 122 μM, 20 mM MES buffer pH 6.0, one hour at 37° C.; read-out: IC50 (concentration at which half the maximum inhibition of HIV-1-protease is found)
T1 construct: made in house
Experimental: In that procedure the inhibition of the action of HIV-1- protease (preparation: see S. Billich et al., J. Biol. Chem. 263 (34), 17905-17908 (1990)) is measured in the presence of the icosapeptide […] (a synthetic substrate of HIV-1-protease, prepared by peptide synthesis in accordance with known procedures (see J. Schneider et al., Cell 54, 363-368 (1988)), which contains as substrate analogue one of the cleavage sites of the gag-precursor protein (natural substrate of HIV-1-protease). That substrate and its cleavage products are analysed by high performance liquid chromatography (HPLC).
The test compound is dissolved in dimethyl sulfoxide. The enzymatic test is carried out by adding suitable dilutions of the inhibitor in 20 mM β-morpholinoethanesulfonic acid (MES) buffer pH 6.0 to the test mixture. That mixture consists of the above-mentioned icosapeptide (122 μM) in 20 mM MES buffer pH 6.0. 100 μl are used per test batch. The reaction is started by the addition of […] of HIV-1-protease solution and is stopped after one hour's incubation at 37° C. by the addition of 10 μl of 0.3M HClO4. After centrifugation of the sample at 10000×g for 5 minutes, 20 μl of the resulting supernatant are applied to a 125×4.6 mm Nucleosil® Cl8-5 μ HPLC column (reversed phase material supplied by Macherey & Nagel, Duren, FRG, based on silica gel that has been charged with C18 alkyl chains). The uncleaved icosapeptide and its cleavage products are eluted from the column by means of the following gradient: 100% eluant 1→50% eluant 1+50% eluant 2 (eluant 1:10% acetonitrile, 90% H2 O, 0.1% trifluoroacetic acid (TFA); eluant 2:75% acetonitrile, 25% H2 O, 0.08% TFA) over 15 minutes, throughflow rate 1 ml/min. The quantification of the eluted peptide fragments is carried out by measuring the peak height of the cleavage product at 215 nm.

[2] = tested on: HIV-1/MN; assay: Inhibition of virus replication in MT-2 cells infected with HIV-1/MN (reverse transcriptase activity in supernatant); format: cell-based; settings: 4 days' incubation
From the text: In a further test it can be shown that the title compound from Example 5 protects cells normally infected by HIV from such an infection or at least slows down such an infection. For this test, MT-2 cells infected with HIV-1/MN are used. MT-2 cells have been transformed with HTLV-1 (a virus causing leukaemia) and are a continuous producer thereof; they are therefore especially sensitive to the cytopathogenic effect of HIV. MT-2 cells can be obtained via the AIDS Research and Reference Reagent Program, Division of AIDS, NIAID, NIH from Dr. Douglas Richman (see J. Biol. Chem. 263, 5870-5875 (1988) and also Science 229, 563-566 (1985)). The MT-2 cells are cultured in RPMI 1640 medium (Gibco, Scotland; RPMI comprises an amino acid mixture without glutamine) supplemented with 10% heat-inactivated foetal calf serum, glutamine and standard antibiotics. […] The titre of the HIV-1/MN virus stock solution (determined by titration onto MT-2 cells) is 4.2×10^5 TClD50/ml (TClD50=Tissue Culture Infective Dose=dose that infects 50% of the MT-2 cells). […] Prior to the test, 0.1% (v/v) [alpha-^32 P]dTTP is added to aliquots of the solution in order to establish a radioactivity of 10 μCl/ml.
After mixing, the plate is incubated for 2 h at 37° C. […] The radioactivity on the filters is measured in a Matrix Packard 96-well counter (Packard, Zurich, Switzerland). […]

[3] = Plasma levels in mice after oral administration; format: in vivo, female BALB/c mice; settings: 120 mg/kg
Experimental: In order to determine its pharmacokinetics, the title compound from Example 5 is dissolved in dimethyl sulfoxide (DMSO) in a concentration of 240 mg/ml. The resulting solution is diluted 1:20 (v/v) with 20% (w/v) aqueous hydroxypropyl-β-cyclodextrin solution in order to obtain a concentration of the test compound of 12 mg/ml. The resulting solution is treated briefly with ultrasound and administered orally to female BALB/c mice (Bomholtgarden, Copenhagen, Denmark) by artificial tube feeding at a dose of 120 mg/kg. At fixed times (for example 30, 60, 90, 120 min) after administration, mice are sacrificed and the […] stored in heparinised test tubes. The blood is centrifuged (12000×g, 5 min) and the plasma removed. […] The precipitate is pelleted by centrifugation (12000×g, 5 min), and the concentration of the test compound is determined by reversed phase high performance liquid chromatography (HPLC).
The HPLC analysis of the samples obtained in accordance with the method described above is carried out on a 125×4.6 mm Nucleosil® C18 column (reversed phase material supplied by Macherey & Nagel, Duren, Germany, based on silica gel derivatised with hydrocarbon radicals having 18 carbon atoms), using a 2 cm long preliminary column containing the same column material. […] The test compound is detected by UV absorption measurement at 255 nm. […]

Row | Structure (SMILES) | IC50 [1] | ED90 (concentration that reduces the RT activity by 90%; 90% inhibition of virus replication) [2] | plasma level ([3]; 30 min after administration) | plasma level ([3]; 90 min after administration)
1 | COC(=O)N[C@H](C(=O)N[C@@H](Cc1ccccc1)[C@@H](O)CN(Cc1ccc(-c2nnn(C)n2)cc1)NC(=O)[C@@H](NC(=O)OC)C(C)(C)C)C(C)(C)C [1-[4-(2-methyl-2H-tetrazol-5-yl)-phenyl]-4(S)-hydroxy-5(S)-2,5-bis[N-(N-methoxycarbonyl-(L)-tert-leucyl)amino]-6-phenyl-2-axahexane] | 51 nM |  |  | 
2 | COC(=O)N[C@H](C(=O)N[C@@H](Cc1ccccc1)[C@@H](O)CN(Cc1ccc(-c2ccccn2)cc1)NC(=O)[C@@H](NC(=O)OC)C(C)(C)C)C(C)(C)C [Example 5, 1-[4-(Pyridin-2-yl)-phenyl]-4(S)-hydroxy-5(S)-2,5-bis[N-(N-methoxycarbonyl-(L)-tert-leucyl)-amino]-6-phenyl-2-azahexane] | 26 nM | 3 nM | 21.83 µM | 31.76 µM
3 | COC(=O)N[C@H](C(=O)N[C@@H](Cc1ccccc1)[C@@H](O)CN(Cc1ccc(-c2nccs2)cc1)NC(=O)[C@@H](NC(=O)OC)C(C)(C)C)C(C)(C)C [1-[4-(thiazol-2-yl)-phenyl]-4(S)-hydroxy-5(S)-2,5-bis[N-(N-methoxycarbonyl-(L)-tert-leucyl)amino]-6-phenyl-2-azahexane] | 33 nM |  |  | 
